# Source: ChEMBL document CHEMBL1133835, “A unique ring-expanded acyclic nucleoside analogue that inhibits both adenosine deaminase (ADA) and guanine deaminase (GDA; guanase): synthesis and enzyme inhibition studies of 4,6-diamino-8H-1-hydroxyethoxymethyl-8-iminoimidazo[4,5-e][1,3]diazepine” (Bioorg Med Chem Lett, 2001)
# Target: T1, Adenosine deaminase (Bos taurus, UniProt P56658)
# T1 sequence (P56658 whole entry): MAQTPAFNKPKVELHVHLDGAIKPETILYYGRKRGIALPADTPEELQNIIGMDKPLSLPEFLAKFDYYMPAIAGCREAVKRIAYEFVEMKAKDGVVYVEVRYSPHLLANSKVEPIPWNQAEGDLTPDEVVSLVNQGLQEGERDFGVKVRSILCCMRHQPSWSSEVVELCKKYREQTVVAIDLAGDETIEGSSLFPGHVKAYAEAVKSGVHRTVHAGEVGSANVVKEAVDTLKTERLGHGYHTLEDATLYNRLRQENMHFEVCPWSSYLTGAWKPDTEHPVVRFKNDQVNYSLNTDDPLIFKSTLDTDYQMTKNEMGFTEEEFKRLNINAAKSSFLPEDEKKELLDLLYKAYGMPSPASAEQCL
# Experiment: Binding affinity against Adenosine deaminase from calf intestinal mucosa was determined
# Type: tissue-based
compound,measurement,value
CCCCCC[C@@H]([C@@H](C)O)n1cnc2c(N)ncnc21 [EHNA],Ki,10 nM
